Converted amounts (≈) assume the structure as drawn.

We go through seven molecules from patent US8729112B2, “Antimicrobial haloalkyl heterocycle compounds” (NovaBay Pharmaceuticals, Inc., priority 2011, dated 2014).

Holding throughout (assay type): cell-based
For data set [1], the system named is Escherichia coli (ATCC 25922). Kind of data set: Antimicrobial activity (MBC), E. coli. The conditions noted are these: saline pH 7, 1 h at room temperature, 1.0×10^5 to 1.0×10^6 CFU/mL. Here is the method:
(§1) Antimicrobial activity of certain compounds of the present disclosure was tested against Escherichia coli (ATCC 25922), Staphylococcus aureus (ATCC 29213), and Candida albicans (ATCC 10231). The microbial cultures were diluted in sterile saline pH 7 to prepare inocula. Test compounds were titrated by stepwise two-fold dilutions in sterile saline pH 7. A total of 1.0×10^5 to 1.0×10^6 Colony Forming Units (CFU)/mL microbe was added to each tube, mixed by gentle vortexing, and then incubated at room temperature for 1 h. Microbial plating on Petri dishes (Tryptic Soy agar or Saboraud's Dextrose agar) was performed immediately after the designated exposure after neutralization of the test article dilutions in Dey-Engley Broth. Plates were incubated at 37° C., and the numbers of microbes were counted by direct colony count to quantitate the surviving microbes as CFU/mL. Positive growth controls were made with sterile 0.9% saline. Compounds were dissolved phosphate buffered saline (PBS) at pH 7 (using HCl and/or NaOH as needed). All compounds were tested three times.

For data set [2], the system named is Staphylococcus aureus (ATCC 29213). Nature of the data set: Antimicrobial activity (MBC), S. aureus. The conditions noted are these: saline pH 7, 1 h at room temperature, 1.0×10^5 to 1.0×10^6 CFU/mL. As to the method: as §1
Data set [3] deals with Candida albicans (ATCC 10231). Nature of the data set: Antimicrobial activity (MFC), C. albicans. The conditions noted are these: saline pH 7, 1 h at room temperature, 1.0×10^5 to 1.0×10^6 CFU/mL. Here is the method:
as §1

The next data set relates to L929 cells. Kind of data set: Cytotoxicity CT50 in L929 cells.

Regarding `CC1(CC(F)(F)F)COC(=O)N1Cl` (stereo not shown) [Compound 36-08, 3-chloro-4-(2,2,2-trifluoroethyl)-4-methyl-oxazolidin-2-one], the “MBC/MFC E. coli” value in data set [1] is 4 µg/mL (≈ 18.4 µM). In addition, the “MBC/MFC S. aureus” value in data set [2] is 1 µg/mL (≈ 4.6 µM). Moreover, in data set [3], the “MBC/MFC C. albicans” value worked out at 128 µg/mL (≈ 588 µM). For the same molecule, the “CT50 L929 cells” value in the data set with L929 cells is 0.232 mM.

Turning to `CC1(CBr)COC(=O)N1Cl` (stereo not shown) [Compound 36-05, 4-(bromomethyl)-3-chloro-4-methyloxazolidin-2-one], the “MBC/MFC E. coli” value in data set [1] amounted to 1 µg/mL (≈ 4.38 µM). Moreover, the “MBC/MFC S. aureus” value in data set [2] was 0.5 µg/mL (≈ 2.19 µM). The “MBC/MFC C. albicans” value in data set [3] was found to be 64 µg/mL (≈ 280 µM). The “CT50 L929 cells” value in the data set with L929 cells was determined as 0.1 mM.

As for `CC1(CCl)CCC(=O)N1Cl` (stereo not shown) [Compound 36-03, 1-chloro-5-(chloromethyl)-5-methylpyrrolidin-2-one], the “MBC/MFC E. coli” value in data set [1] was found to be 2 µg/mL (≈ 11 µM). The “MBC/MFC S. aureus” value in data set [2] was determined as 128 µg/mL (≈ 703 µM). Also, the “MBC/MFC C. albicans” value in data set [3] was >512 µg/mL. Also, in the data set on L929 cells, the “CT50 L929 cells” value was 0.026 mM.

As for `CC1(CCl)COC(=O)N1Cl` (stereo not shown) [Compound 36-01, 3-Chloro-4-(chloromethyl)-4-methyloxazolidin-2-one], the “MBC/MFC E. coli” value in data set [1] amounted to 0.5 µg/mL (≈ 2.72 µM). For the same molecule, the “MBC/MFC S. aureus” value in data set [2] was 0.5 µg/mL (≈ 2.72 µM). Further, the “MBC/MFC C. albicans” value in data set [3] is >128 µg/mL. The “CT50 L929 cells” value in the data set on L929 cells came to 0.09 mM.

With `CC1(CF)COC(=O)N1Cl` (stereo not shown) [Compound 36-07, 3-chloro-4-(fluoromethyl)-4-methyl-oxazolidin-2-one], in data set [1], the “MBC/MFC E. coli” value came out at 0.5 µg/mL (≈ 2.98 µM). Further, the “MBC/MFC S. aureus” value in data set [2] was 0.5 µg/mL (≈ 2.98 µM). For the same molecule, in data set [3], the “MBC/MFC C. albicans” value was determined as 256 µg/mL (≈ 1530 µM). In the data set with L929 cells, the “CT50 L929 cells” value turned out to be 0.142 mM.

For `CN1CC(C)(CCl)N(Cl)C1=O` (stereo not shown) [Compound 36-02, 3-Chloro-4-(chloromethyl)-1,4-dimethylimidazolidin-2-one], in data set [1], the “MBC/MFC E. coli” value is 8 µg/mL (≈ 40.6 µM). Besides, the “MBC/MFC S. aureus” value in data set [2] was determined as 16 µg/mL (≈ 81.2 µM). Further, in data set [3], the “MBC/MFC C. albicans” value came out at 512 µg/mL (≈ 2600 µM). For the same molecule, in the data set on L929 cells, the “CT50 L929 cells” value was 0.04 mM.

In the case of `O=C1OCC(CCl)(CCl)N1Cl` [Compound 36-06, 3-chloro-4,4-bis(chloromethyl)oxazolidin-2-one], the “MBC/MFC E. coli” value in data set [1] is 1 µg/mL (≈ 4.58 µM). In data set [2], the “MBC/MFC S. aureus” value is 0.5 µg/mL (≈ 2.29 µM). In data set [3], the “MBC/MFC C. albicans” value was 16 µg/mL (≈ 73.2 µM). The “CT50 L929 cells” value in the data set with L929 cells came to 0.4 mM.
